Twelve molecules from patent US11739098B2 (BRISTOL-MYERS SQUIBB COMPANY, priority 2017, dated 2023) can be followed below.

Assay type in all cases: cell-based
Test [1] concerns the target T1, human TLR7 (Homo sapiens, UniProt Q9NYK1).
T1 construct: host or cells: HEK-Blue cells (HEK293-derived reporter line)
T1 sequence (Q9NYK1 27-1049): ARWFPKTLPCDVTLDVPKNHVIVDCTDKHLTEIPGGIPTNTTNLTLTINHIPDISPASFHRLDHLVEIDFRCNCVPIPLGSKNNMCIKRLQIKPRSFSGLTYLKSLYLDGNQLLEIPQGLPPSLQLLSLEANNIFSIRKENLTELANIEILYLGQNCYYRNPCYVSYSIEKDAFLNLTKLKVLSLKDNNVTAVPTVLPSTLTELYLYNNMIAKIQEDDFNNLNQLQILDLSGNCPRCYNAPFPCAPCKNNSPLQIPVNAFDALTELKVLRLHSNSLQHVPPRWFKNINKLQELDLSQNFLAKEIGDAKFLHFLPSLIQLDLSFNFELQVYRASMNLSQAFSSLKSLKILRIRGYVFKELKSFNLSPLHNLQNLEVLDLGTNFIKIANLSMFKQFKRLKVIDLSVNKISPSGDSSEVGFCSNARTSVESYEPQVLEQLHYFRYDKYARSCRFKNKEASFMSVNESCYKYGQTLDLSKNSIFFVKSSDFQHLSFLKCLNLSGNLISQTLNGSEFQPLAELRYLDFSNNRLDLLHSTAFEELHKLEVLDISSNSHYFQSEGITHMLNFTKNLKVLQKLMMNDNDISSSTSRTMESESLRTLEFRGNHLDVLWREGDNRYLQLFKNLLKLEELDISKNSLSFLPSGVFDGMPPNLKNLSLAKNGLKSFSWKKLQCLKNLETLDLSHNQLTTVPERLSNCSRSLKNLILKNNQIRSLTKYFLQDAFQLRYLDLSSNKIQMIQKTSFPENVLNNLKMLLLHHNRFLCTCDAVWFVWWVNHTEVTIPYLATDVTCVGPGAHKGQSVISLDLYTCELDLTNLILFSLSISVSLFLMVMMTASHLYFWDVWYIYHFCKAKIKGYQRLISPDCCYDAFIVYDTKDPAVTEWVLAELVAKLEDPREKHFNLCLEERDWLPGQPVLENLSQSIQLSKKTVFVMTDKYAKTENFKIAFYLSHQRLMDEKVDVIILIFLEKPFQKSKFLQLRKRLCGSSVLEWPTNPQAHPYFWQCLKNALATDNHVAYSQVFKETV
Kind of test: TLR7 inhibition reporter assay (HEK-Blue cells, SEAP reporter, gardiquimod stimulation). The conditions noted are these: HEK-Blue cells overexpressing human TLR7, SEAP reporter, gardiquimod 7.5 μM. Summed up:
(§1)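 Cells seeded per well (15000 TLR7, 20,000 TLR8, 25,000 TLR9); compound added over 0.05 nM–50 μM for 30 min at room temperature; agonist added (TLR7 gardiquimod 7.5 μM, TLR8 R848 15.9 μM, TLR9 ODN2006 5 nM); 22 h at 37 °C; SEAP measured; percent inhibition calculated.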

Test [2] deals with T2, human TLR8 (Homo sapiens, UniProt Q9NR97).
T2 construct: host or cells: HEK-Blue cells (HEK293-derived reporter line)
T2 sequence (Q9NR97 27-1041): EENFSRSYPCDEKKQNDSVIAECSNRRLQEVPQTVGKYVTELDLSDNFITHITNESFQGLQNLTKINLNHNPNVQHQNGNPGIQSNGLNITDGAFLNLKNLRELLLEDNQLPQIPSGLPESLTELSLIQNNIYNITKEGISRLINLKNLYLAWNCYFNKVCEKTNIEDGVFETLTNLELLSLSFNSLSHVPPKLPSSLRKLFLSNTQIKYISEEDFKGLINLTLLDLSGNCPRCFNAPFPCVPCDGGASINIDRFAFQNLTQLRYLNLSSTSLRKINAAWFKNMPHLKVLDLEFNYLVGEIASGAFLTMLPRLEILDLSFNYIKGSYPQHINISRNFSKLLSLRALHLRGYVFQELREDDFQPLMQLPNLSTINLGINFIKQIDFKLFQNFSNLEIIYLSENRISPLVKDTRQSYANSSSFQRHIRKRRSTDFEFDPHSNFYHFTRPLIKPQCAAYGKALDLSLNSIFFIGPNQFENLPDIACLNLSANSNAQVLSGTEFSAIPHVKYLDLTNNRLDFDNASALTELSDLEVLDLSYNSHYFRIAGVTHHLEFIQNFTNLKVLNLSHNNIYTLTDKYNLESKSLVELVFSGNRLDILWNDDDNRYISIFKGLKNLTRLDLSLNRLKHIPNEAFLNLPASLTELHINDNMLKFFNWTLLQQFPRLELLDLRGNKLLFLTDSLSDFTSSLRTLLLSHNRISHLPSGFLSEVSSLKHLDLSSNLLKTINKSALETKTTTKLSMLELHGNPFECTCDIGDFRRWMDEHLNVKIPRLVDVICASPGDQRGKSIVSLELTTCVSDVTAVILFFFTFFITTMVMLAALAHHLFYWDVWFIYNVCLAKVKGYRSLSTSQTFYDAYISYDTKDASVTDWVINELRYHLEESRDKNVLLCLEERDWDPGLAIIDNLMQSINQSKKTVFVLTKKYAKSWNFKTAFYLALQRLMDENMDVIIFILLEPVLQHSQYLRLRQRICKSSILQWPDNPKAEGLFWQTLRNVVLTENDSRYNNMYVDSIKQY
Kind of test: TLR8 inhibition reporter assay (HEK-Blue cells, SEAP reporter, R848 stimulation). The note with it: HEK-Blue cells overexpressing human TLR8, SEAP reporter, R848 15.9 μM. Summed up:
as §1

Test [3] deals with T3, human TLR9 (Homo sapiens, UniProt Q9NR96).
T3 construct: host or cells: HEK-Blue cells (HEK293-derived reporter line)
T3 sequence (Q9NR96 26-1032): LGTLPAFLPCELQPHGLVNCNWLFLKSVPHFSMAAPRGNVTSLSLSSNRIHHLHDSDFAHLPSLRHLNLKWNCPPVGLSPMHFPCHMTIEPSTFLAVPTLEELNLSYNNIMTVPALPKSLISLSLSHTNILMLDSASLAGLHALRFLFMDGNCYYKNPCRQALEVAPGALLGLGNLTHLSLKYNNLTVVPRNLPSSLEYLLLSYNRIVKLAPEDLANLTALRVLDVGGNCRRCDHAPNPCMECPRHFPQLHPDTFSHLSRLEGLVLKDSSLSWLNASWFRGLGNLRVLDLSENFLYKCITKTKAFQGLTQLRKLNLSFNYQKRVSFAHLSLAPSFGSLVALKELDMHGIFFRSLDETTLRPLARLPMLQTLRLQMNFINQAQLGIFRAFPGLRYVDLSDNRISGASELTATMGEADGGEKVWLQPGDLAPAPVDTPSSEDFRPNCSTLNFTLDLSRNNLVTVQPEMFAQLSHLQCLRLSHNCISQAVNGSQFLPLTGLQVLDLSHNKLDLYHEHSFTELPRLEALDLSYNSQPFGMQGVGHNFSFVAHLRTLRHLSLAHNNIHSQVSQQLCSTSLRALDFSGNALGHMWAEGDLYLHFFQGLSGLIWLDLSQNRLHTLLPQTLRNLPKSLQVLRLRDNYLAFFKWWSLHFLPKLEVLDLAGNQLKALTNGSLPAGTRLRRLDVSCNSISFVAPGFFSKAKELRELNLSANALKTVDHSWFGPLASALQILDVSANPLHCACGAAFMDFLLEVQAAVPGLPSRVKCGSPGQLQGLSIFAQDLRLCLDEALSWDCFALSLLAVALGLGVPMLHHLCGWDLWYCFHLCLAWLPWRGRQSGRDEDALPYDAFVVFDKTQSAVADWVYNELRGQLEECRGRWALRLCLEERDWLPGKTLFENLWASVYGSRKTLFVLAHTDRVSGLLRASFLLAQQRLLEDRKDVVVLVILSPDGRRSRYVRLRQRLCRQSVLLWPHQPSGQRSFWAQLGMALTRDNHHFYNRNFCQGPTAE
Kind of test: TLR9 inhibition reporter assay (HEK-Blue cells, SEAP reporter, ODN2006 stimulation). The conditions noted are these: HEK-Blue cells overexpressing human TLR9, SEAP reporter, ODN2006 5 nM. Summed up: as §1

A value given as a limit tells only on which side of the number the result lay.

For `CC(C)c1c(-c2ccnc3[nH]ncc23)[nH]c2ccc(C3CCN(Cc4cnc5ccccc5c4)CC3)cc12` [Example 895, 3-((4-(3-isopropyl-2-(1H-pyrazolo[3,4-b]pyridin-4-yl)-1H-indol-5-yl)piperidin-1-yl)methyl)quinoline], the IC50 was 100 to 1000 nM in test [1], less than 100 nM in test [2] and 1000 to 50000 nM in test [3].

Turning to `Cc1c(-c2[nH]c3ccc(C4CCN(CC(=O)N(C)C)CC4)cc3c2C(C)C)c2cccnc2n1C` [Example 286, 2-(4-(2-(1,2-dimethyl-1H-pyrrolo[2,3-b]pyridin-3-yl)-3-isopropyl-1H-indol-5-yl)piperidin-1-yl)-N,N-dimethylacetamide], the IC50 is less than 100 nM in test [1], less than 100 nM in test [2] and 1000 to 50000 nM in test [3].

As to `Cc1cc(-c2[nH]c3ccc(C4CCN(C(=O)[C@@H]5C[C@@H](O)CN5)CC4)cc3c2C(C)C)cc2ncnn12` [Example 537, ((2S,4R)-4-hydroxypyrrolidin-2-yl)(4-(3-isopropyl-2-(5-methyl-[1,2,4]triazolo[1,5-a]pyridin-7-yl)-1H-indol-5-yl)piperidin-1-yl)methanone], the IC50 in test [1] is less than 100 nM; in test [2], less than 100 nM; in test [3] it was 1000 to 50000 nM.

In the case of `Cc1cn2cc(-c3[nH]c4ccc(C5CCN(C(C)C)CC5)cc4c3C(C)C)cc(C(F)(F)F)c2n1` [Example 943, 6-(3-isopropyl-5-(1-isopropylpiperidin-4-yl)-1H-indol-2-yl)-2-methyl-8-(trifluoromethyl)imidazo[1,2-a]pyridine], the values for the IC50 in test [1], in test [2] and in test [3] were less than 100 nM, 100 to 1000 nM and 100 to 1000 nM, respectively.

Regarding `Cc1cc(-c2[nH]c3ccc(C4CCN(C(=O)CN5CCCC5)CC4)cc3c2C(C)C)cn2nnnc12` [Example 470, 1-(4-(3-isopropyl-2-(8-methyltetrazolo[1,5-a]pyridin-6-yl)-1H-indol-5-yl)piperidin-1-yl)-2-(pyrrolidin-1-yl) ethan-1-one], the IC50 in test [1] is less than 100 nM; in test [2], less than 100 nM; in test [3], 1000 to 50000 nM.

For `Cc1c(-c2ccnc3[nH]ncc23)[nH]c2ccc(C3CCN(C4CCN(C(C)C)CC4)CC3)cc12` [Example 833, 4-(5-(1′-isopropyl-[1,4′-bipiperidin]-4-yl)-3-methyl-1H-indol-2-yl)-1H-pyrazolo[3,4-b]pyridine], the IC50 in test [1], in test [2] and in test [3] was less than 100 nM in each case.

With `CC(C)c1c(-c2nc3c(s2)CNCC3)[nH]c2ccc(C3CCNCC3)cc12` [Example 208, 2-(3-isopropyl-5-(piperidin-4-yl)-1H-indol-2-yl)-4,5,6,7-tetrahydrothiazolo[5,4-c]pyridine], the IC50 in test [1] is 1000 to 50000 nM; in test [2], 1000 to 50000 nM; in test [3], less than 100 nM.

In the case of `Cc1cc(-c2[nH]c3ccc(C4CCN(C(=O)CCN5CCC(F)CC5)CC4)cc3c2C(C)C)cn2nnnc12` [Example 633, 3-(4-fluoropiperidin-1-yl)-1-(4-(3-isopropyl-2-(8-methyltetrazolo[1,5-a]pyridin-6-yl)-1H-ndol-5-yl)piperidin-1-yl)propan-1-one], the IC50 in test [1] was less than 100 nM; in test [2], less than 100 nM; in test [3], 1000 to 50000 nM.

As to `CC(C)c1c(-c2cnc3ccnn3c2)[nH]c2ccc(C3CCN(CC(C)(C)O)CC3)cc12` [Example 759, 1-(4-(3-isopropyl-2-(pyrazolo[1,5-a]pyrimidin-6-yl)-1H-indol-5-yl)piperidin-1-yl)-2-methylpropan-2-ol], the results for the IC50 in test [1], in test [2] and in test [3] were 100 to 1000 nM, 1000 to 50000 nM and 1000 to 50000 nM, respectively.

Consider `CC(C)c1c(-c2cn(C)c3ncccc23)[nH]c2ccc(C3CCN(Cc4ncn(C)n4)CC3)cc12` [Example 878, 3-(3-isopropyl-5-(1-((1-methyl-1H-1,2,4-triazol-3-yl)methyl)piperidin-4-yl)-1H-indol-2-yl)-1-methyl-1H-pyrrolo[2,3-b]pyridine], for which the IC50 in test [1] is less than 100 nM; in test [2] it was less than 100 nM; in test [3], 1000 to 50000 nM.

For the molecule `CC(C)c1c(-c2ccnc3[nH]ncc23)[nH]c2ccc(C3CCN(C(=O)C4CCNCC4)CC3)cc12` [Example 649, (4-(3-isopropyl-2-(1H-pyrazolo[3,4-b]pyridin-4-yl)-1H-indol-5-yl)piperidin-1-yl)(piperidin-4-yl)methanone], the IC50 in test [1] lay within 100 to 1000 nM; in test [2] it was 100 to 1000 nM; in test [3], 1000 to 50000 nM.

Take `CC(C)c1c(-c2ccc3ncnn3n2)[nH]c2ccc(C3CCN(C(=O)CN(C)C)CC3)cc12` [Example 452, 1-(4-(2-([1,2,4]triazolo[1,5-b]pyridazin-6-yl)-3-isopropyl-1H-indol-5-yl)piperidin-1-yl)-2-(dimethylamino)ethan-1-one]: the half-maximal inhibitory concentration (IC50) is less than 100 nM in test [1], less than 100 nM in test [2] and 1000 to 50000 nM in test [3].
